From ChEMBL document CHEMBL1129697, “Synthesis and anticonvulsant evaluation of a series of (R)- and (S)-N-Cbz--aminoglutarimide and succinimide” (Bioorg Med Chem Lett, 1996)
The source made the active and inactive calls. The rule behind the calls is not given here.

Assays:
[1] = system: Mus musculus; experiment: Compound was tested for anticonvulsant activity in male mice by pentylenetetrazole (80 mg/kg, sc) induced seizure test.; No effect; format: functional, organism-based
[2] = organism: Mus musculus; experiment: Compound was tested for anticonvulsant activity in male mice using maximal electric shock seizure test; No effect; format: functional, organism-based
[3] = system: Mus musculus; experiment: Compound was tested for anticonvulsant activity in male mice by pentylenetetrazole (80 mg/kg, sc) induced seizure test.; format: functional
[4] = Compound was tested for anticonvulsant activity in male mice by pentylenetetrazole (80 mg/kg, sc) induced seizure test.; Protective index = TD50/ED50; format: ADME, organism-based; conditions: mouse, in vivo, read-out: PI
[5] = organism: Mus musculus; experiment: Compound was tested for anticonvulsant activity in male mice using maximal electric shock seizure test.; format: functional
[6] = Compound was tested for neurotoxic activity in male mice using rotarod test.; format: ADME; conditions: mouse, in vivo
[7] = Compound was tested for anticonvulsant activity in male mice using maximal electric shock seizure test; Protective index = TD50/ED50; format: ADME; conditions: mouse, read-out: PI
[8] = Compound was tested for anticonvulsant activity in male mice using maximal electric shock seizure test.; Protective index = TD50/ED50; format: ADME; conditions: mouse, read-out: PI

O=C1NC(=O)C(c2ccccc2)(c2ccccc2)N1
ED50 [1]: inactive

CCC1(C)CC(=O)NC1=O (stereo not drawn) [ETHOSUXIMIDE]
ED50 [2]: inactive | ED50 [3]: 130 mg/kg | selectivity ratio [4]: 3.4

CN1C(=O)C[C@@H](NC(=O)OCc2ccccc2)C1=O
ED50 [3]: 82.5 mg/kg | ED50 [5]: 52.5 mg/kg | TD50 [6]: 167 mg/kg | selectivity ratio [4]: 2 | selectivity ratio [7]: 3.2

CCC1(c2ccccc2)C(=O)NC(=O)NC1=O [PHENOBARBITAL]
ED50 [3]: 13.1 mg/kg | ED50 [5]: 21.8 mg/kg

CN1C(=O)CC[C@@H](NC(=O)OCc2ccccc2)C1=O
ED50 [3]: 24.4 mg/kg | ED50 [5]: 47.5 mg/kg | selectivity ratio [8]: 2.5 | TD50 [6]: 120 mg/kg | selectivity ratio [4]: 4.9

O=C1CC[C@@H](NC(=O)OCc2ccccc2)C(=O)N1
ED50 [3]: 46.9 mg/kg | ED50 [5]: 56.3 mg/kg | TD50 [6]: 122 mg/kg | selectivity ratio [4]: 2.6 | selectivity ratio [7]: 2.2

CN1C(=O)OC(C)(C)C1=O [TRIMETHADIONE]
ED50 [3]: 250 mg/kg | ED50 [5]: 704 mg/kg | TD50 [6]: 1070 mg/kg | selectivity ratio [4]: 4.3 | selectivity ratio [7]: 1.5

O=C1C[C@H](NC(=O)OCc2ccccc2)C(=O)N1
ED50 [3]: 78.1 mg/kg | ED50 [5]: 103 mg/kg | TD50 [6]: 161 mg/kg | selectivity ratio [4]: 2.1 | selectivity ratio [7]: 1.6

CN1C(=O)CC[C@H](NC(=O)OCc2ccccc2)C1=O
ED50 [3]: 12.5 mg/kg | ED50 [5]: 36.1 mg/kg | TD50 [6]: 62.5 mg/kg | selectivity ratio [4]: 5 | selectivity ratio [7]: 1.7

CN1C(=O)C[C@H](NC(=O)OCc2ccccc2)C1=O
ED50 [3]: 113 mg/kg | ED50 [5]: 61.2 mg/kg | TD50 [6]: 118 mg/kg | selectivity ratio [4]: 1 | selectivity ratio [7]: 1.9

CCCC(CCC)C(=O)O [VALPROIC ACID]
ED50 [3]: 149 mg/kg | ED50 [5]: 272 mg/kg

O=C1CC[C@H](NC(=O)OCc2ccccc2)C(=O)N1
ED50 [3]: 42.5 mg/kg | ED50 [5]: 43.1 mg/kg | TD50 [6]: 130 mg/kg | selectivity ratio [4]: 3.1 | selectivity ratio [7]: 3

O=C1C[C@@H](NC(=O)OCc2ccccc2)C(=O)N1
ED50 [3]: 110 mg/kg | ED50 [5]: 125 mg/kg | TD50 [6]: 178 mg/kg | selectivity ratio [4]: 1.6 | selectivity ratio [7]: 1.4

CN1C(=O)CC(C)(c2ccccc2)C1=O (stereo not drawn) [METHSUXIMIDE]
ED50 [3]: 34.5 mg/kg | ED50 [5]: 42.6 mg/kg | TD50 [6]: 130 mg/kg | selectivity ratio [4]: 3.7 | selectivity ratio [7]: 3.1
